Like-named read-outs stand apart in the source and are kept apart here.
What was measured:
[1] = tested on: human CD8-positive memory T cell; experiment: Cell growth inhibition test of human CD8-positive memory T cell (anti-CD3 antibody stimulation, BrdU uptake); type: cell-based; settings: 48 hours
Procedure: A heparinized blood sample was collected from a human, healthy volunteer, and peripheral blood mononuclear cell (PBMC) was isolated by a density gradient centrifugation. Specifically, a blood sample (33 ml) 2-fold diluted with physiological saline was overlaid on a medium for hemocyte separation use (10 ml) having a specific gravity of 1.077±0.001 g/ml contained in a centrifugation tube (LymphoPrep tube (Nycomed Pharma)) and centrifuged (3000×g, 10 minutes) at room temperature. The layer containing PBMC was recovered and washed twice with PBS to isolate PBMC.
CD8-positive T cell was isolated from PBMC by a negative selection method using Human T Cell CD8 Subset Column Kit (R & D Systems, Inc). Specifically, the cells to be removed such as B cell, CD4-positive T cell, and monocyte were labeled with antibodies by adding an antibody cocktail (1 ml) (attached to the kit) to PBMC (up to 2×10^8 cells) and incubating at room temperature for 15 minutes. The cells were washed twice with a column buffer (10 ml) (attached to the kit) and suspended in said column buffer (2 ml). The cell suspension was added to Human T Cell Subset Enrichment Column (attached to the kit) which had been equilibrated in advance using the column buffer (10 ml). By eluting with the column buffer (10 ml) after incubation at room temperature for 10 minutes, the CD8-positive T cell was obtained.
CD8-positive naive T cell and CD8-positive memory T cell were obtained by fractionating the CD8-positive T cell obtained by the above-described method using VarioMACS (Miltenyl Biotec). Specifically, a marker of naive T cell, CD45RA antigen, was labeled with antibody magnetic beads by adding 20 μl of CD45RA MicroBeads (Miltenyl Biotec) to 1×10^7 cells of the CD8-positive T cell, mixing them and incubating at 6 to 12° C. for 15 minutes. The cells were washed once with MACS buffer (PBS containing 2 mM EDTA and 0.5% bovine serum albumin (BSA)) (20 ml) (attached to the kit) and re-suspended in MACS buffer (0.5 ml). The cell suspension was added to an MS column (Miltenyl Biotec) which had been set to VarioMACS and equilibrated with MACS buffer (0.5 ml) in advance, and further washed with MACS buffer (0.5 ml×3 times). This washing solutions were recovered and used in the following test as the CD45RA-negative cell, namely CD8-positive memory T cell. Also, since the CD45RA-positive cell can be recovered by taking off the MS column from VarioMACS and eluting it with MACS buffer (1.5 ml), this was used in the following test as the CD8-positive naive T cell.
The cells fractionated by the method described in the above-described (2-1) were inoculated into a 96 well plate coated with an anti-human CD3 antibody, at a cell density of 2×10^5 cells/200 μl/well. The anti-human CD3 antibody-coated 96 well plate used herein was prepared by coating it with an anti-human CD3 antibody OKT-3 (0.1 μg/ml) overnight at 4° C. The cells were cultured for 48 hours in a CO2 incubator (5% CO2, humidity 95%) kept at 37° C. The cell growth was measured using Cell Proliferation ELISA, BrdU (Colorimetric) (Roche), using uptake of 5-bromo-2-deoxyuridine (BrdU) as the index. The operation method is shown below.
After treating the cells with BrdU for a predetermined period of time, the plate was centrifuged (300×g, 10 minutes), and then turned upside down and lightly shaken to remove the labeled medium. The plate was dried (for about 15 minutes) using a hair dryer. A cell fixing and DNA denaturing solution (200 μl, attached to the kit) was added to each well and left alone for 30 minutes. After removing the cell fixing and DNA denaturing solution and further removing water, a peroxidase-labeled anti-BrdU antibody (anti-BrdU-POD reaction solution) (100 μl) (attached to the kit) was added thereto and left alone at room temperature for 90 minutes. […]

human CCR5 = target: T1, human CCR5 (Homo sapiens, UniProt P51681); experiment: Migration test of human CCR5 expression cell (hCCR5-Ba/F3 cell); type: cell-based; settings: hCCR5-Ba/F3 cells, 3 hours
T1 construct: expressed in transfected cells
Procedure: The Ba/F3 cell was statically cultured in a CO2 incubator (temperature: 37° C., CO2 concentration: 5%, humidity: 100%) using RPMI-1640 medium (Gibco BRL) containing an antibiotic preparation (Antibiotic-Antimycotic) (final concentration: penicillin G sodium (100 U/ml), streptomycin sulfate (100 μg/ml), amphotericin B (0.25 μg/ml)) (Gibco BRL), fetal bovine serum (FBS) (10%) and interleukin 3 (IL-3) (5 ng/ml) (Pepro Tech, Inc). For the culturing of an external gene stably over-expressing cell, blasticidin (Kaken Pharmaceutical) was added to the above-described medium to a final concentration of 10 μg/ml.
The plasmid for human CCR5 expression (pEF-BOS-bsr′/hCCR5) was made into linear chain by digesting with AatII. The linear-chained plasmid was purified using QIA Quick PCR Purification Kit (QIAGEN) and then transferred into Ba/F3 cell by electroporation (Gene Pulser (BIO RAD) 960 μF/250 V). The cells were inoculated into a 96 well culture plate at a cell density of 1000, 100 or 10 cells/100 μl/well, and 48 hours thereafter, blasticidin was added thereto to a final concentration of 10 μg/ml to carry out cloning of blasticidin resistant strains, thereby establishing a stable over-expression clone capable of expressing the transferred external gene (hCCR5-Ba/F3 cell).
The test was started by superposing the upper chamber on the lower chamber, and the cells were cultured for 3 hours in a CO2 incubator (5% CO2, humidity 95%) kept at 37° C. Outside bottom moiety of the upper chamber was washed out into the lower chamber using 0.5 ml of a washing buffer (phosphate buffered saline (PBS) containing sodium ethylenediaminetetraacetate (EDTA) (2 mM (and FBS (0.1%)), and the number of cells in the lower chamber was counted using a flow cytometer (Becton Dickinson).
The migration inhibition activity by the compounds of the present invention was calculated as the inhibition ratio (%) in accordance with the following formula, in which the value of well to which the medium containing DMSO but not containing the drug to be tested was added was used as the control value (A), and the value of well to which the DMSO-containing medium containing the drug to be tested was added as the value (B). Inhibition ratio (%)=[(A−B)/A]×100

[2] = MIP-1α 3 nM in lower chamber, read-out: IC50 (nM), migration inhibition, chemokine MIP-1α
[3] = MIP-1β 3 nM in lower chamber, read-out: IC50 (nM), migration inhibition, chemokine MIP-1β
[4] = RANTES 3 nM in lower chamber, read-out: IC50 (nM), migration inhibition, chemokine RANTES

T1 sequence (P51681 whole entry): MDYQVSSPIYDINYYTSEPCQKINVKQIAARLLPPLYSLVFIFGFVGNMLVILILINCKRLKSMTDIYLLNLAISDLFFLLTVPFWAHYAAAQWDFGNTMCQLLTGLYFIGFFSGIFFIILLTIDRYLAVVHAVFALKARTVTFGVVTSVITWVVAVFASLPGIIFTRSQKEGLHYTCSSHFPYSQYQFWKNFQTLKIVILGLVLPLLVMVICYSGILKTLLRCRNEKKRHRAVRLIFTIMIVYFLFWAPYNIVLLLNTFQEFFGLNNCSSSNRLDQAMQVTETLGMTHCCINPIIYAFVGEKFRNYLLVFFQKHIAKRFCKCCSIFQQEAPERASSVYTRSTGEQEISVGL

Compound | inhibition ratio of cell growth ([1]; 0.01 μM) | inhibition ratio of cell growth ([1]; 0.1 μM) | inhibition ratio of cell growth ([1]; 1 μM) | inhibition ratio of cell growth ([1]; 10 μM) | IC50 (human CCR5; [2]) | IC50 (human CCR5; [3]) | IC50 (human CCR5; [4])
CCCCN1C(=O)[C@@H]([C@H](O)C2CCCCC2)NC(=O)C12CCN(Cc1ccc(Cc3ccc(C(=O)O)cc3OC)cc1)CC2 [Compound (b), 4-[4-({(3R)-1-butyl-3-[(R)-cyclohexyl(hydroxy)methyl]-2,5-dioxo-1,4,9-triazaspiro[5.5]undec-9-yl}methyl)benzyl]-3-methoxybenzoic acid] | −10.6% | 5.6% | 18.3% | 53.6% | 9.8 nM | 11.1 nM | 12.4 nM
CCCCN1C(=O)[C@@H]([C@H](O)C2CCCCC2)NC(=O)C12CCN(Cc1ccc(Oc3ccc(C(=O)O)cc3OCC)cc1)CC2.Cl [Compound (c), 4-[4-({(3R)-1-butyl-3-[(R)-cyclohexyl(hydroxy)methyl]-2,5-dioxo-1,4,9-triazaspiro[5.5]undec-9-yl}methyl)phenoxy]-3-ethoxybenzoic acid hydrochloride] | 9.2% | 13.4% | 18.8% | 39.6% | 17.3 nM | 18.4 nM | 22.5 nM
